PMC7954794, “Protein context shapes the specificity of SH3 domain-mediated interactions in vivo” (Nature Communications, 2021)

What was measured:
Assay type in all cases: cell-based, Saccharomyces cerevisiae
BEM1-1 = assay: DHFR-PCA on solid medium, bait BEM1-1 (Fig. 1B); details: bait BEM1-1, label = prey; 2-8 replicates
Excerpt: (§1) Supplement 41467_2021_21873_MOESM8_ESM.xlsx, sheet "Fig1B" | column: medsize; medrep; Ratio; Score

BEM1-2 = assay: DHFR-PCA on solid medium, bait BEM1-2 (Fig. 1B); details: bait BEM1-2, label = prey; 2-8 replicates
Excerpt: as §1

BZZ1-1 = assay: DHFR-PCA on solid medium, bait BZZ1-1 (Fig. 1B); details: bait BZZ1-1, label = prey; 4 replicates
Excerpt: Supplement 41467_2021_21873_MOESM8_ESM.xlsx, sheet "Fig1B" | column: medsize; medrep; Score

ABP1 = assay: DHFR-PCA on solid medium, bait ABP1 (Fig. 1B); details: bait ABP1, label = prey; 2-4 replicates
Excerpt: as §1

BOI1 = assay: DHFR-PCA on solid medium, bait BOI1 (Fig. 1B); details: bait BOI1, label = prey
Excerpt: as §1

BUD14 = assay: DHFR-PCA on solid medium, bait BUD14 (Fig. 1B); details: bait BUD14, label = prey; 4 replicates
Excerpt: as §1

BBC1 = assay: DHFR-PCA on solid medium, bait BBC1 (Fig. 1B); details: bait BBC1, label = prey; 2-4 replicates
Excerpt: as §1

BOI2 = assay: DHFR-PCA on solid medium, bait BOI2 (Fig. 1B); details: bait BOI2, label = prey; 3-8 replicates
Excerpt: as §1

## YAL005C
BEM1-1
  medrep (log2 median colony size normalized to plate background, PCA score): 4.321
BEM1-2
  medrep (log2 median colony size normalized to plate background, PCA score): 4.321
BZZ1-1
  medrep (log2 median colony size normalized to plate background, PCA score): 4.381
ABP1
  medrep (log2 median colony size normalized to plate background, PCA score): 5.43
BOI1; 3-8 replicates
  medrep (log2 median colony size normalized to plate background, PCA score): 3.321
BOI1; only significant differences showed, PPIs completely lost have a ratio of 0.1 and the gained PPIs 2.5
  Ratio (SH3-deleted/WT medrep): 1.412
BUD14
  medrep (log2 median colony size normalized to plate background, PCA score): 4.297
BBC1
  medrep (log2 median colony size normalized to plate background, PCA score): 5.353
BOI2
  medrep (log2 median colony size normalized to plate background, PCA score): 4.382
